# Where a name gives a salt, the structure may show the parent alone.
# Molecular target: kinase domain of IRE1 alpha (His-tagged kinase dead construct KR, AA G547-L977, D688N) (Homo sapiens (Human), UniProt O75460, D688N)
# Test: IRE1α TR-FRET competition binding assay
# Details: competition with Kinase Tracer 236, 0.1 μM; one hour at room temperature
# Method: To determine the affinity of compound binding to the kinase domain of IRE1 alpha, a Time Resolved Fluorescence Resonance Energy Transfer (TR-FRET) competition assay was used. A His-tagged IRE1 alpha kinase dead construct containing the kinase and RNase domains (KR, AA G547-L977, D688N) was expressed in Sf9 insect cells. The purified protein (final concentration 0.006 μM micromolar) was pre-incubated with anti-His Europium labeled antibody (Life Technologies PV5596, final concentration 0.002 μM micromolar) for one hour at 4° C. in 1X TR-FRET Assay Buffer (50 mM HEPES, pH 7.5.10 mM MgCl2, 0.083 mM Brij 35, 1 mM DTT, and 0.1% bovine gamma globulin) prior to addition to test compounds. A fluorescent labeled probe based on an ATP competitive inhibitor (Kinase Tracer 236, Life Technologies PV5592) is added to a final concentration of 0.1 μM (micromolar). Reactions were carried out for one hour at room temperature in a final volume of 20 μL (microliter) in 384 well white ProxiPlates (Perkin Elmer 6008289). Binding of the tracer to the IRE1 protein alpha was detected in an Envision instrument (PerkinElmer) equipped with a TRF laser option and a LANCE/Delfia Dual/Bias D400/D630 mirror (Ex 347 nm, 1st Em 665 nm, 2nd Em 615 nm).
# Exemplary compounds in Table A1 were tested in the IRE1α binding assays.
# kinase domain of IRE1 alpha (His-tagged kinase dead construct KR, AA G547-L977, D688N), sequence (O75460 547-977 D688N): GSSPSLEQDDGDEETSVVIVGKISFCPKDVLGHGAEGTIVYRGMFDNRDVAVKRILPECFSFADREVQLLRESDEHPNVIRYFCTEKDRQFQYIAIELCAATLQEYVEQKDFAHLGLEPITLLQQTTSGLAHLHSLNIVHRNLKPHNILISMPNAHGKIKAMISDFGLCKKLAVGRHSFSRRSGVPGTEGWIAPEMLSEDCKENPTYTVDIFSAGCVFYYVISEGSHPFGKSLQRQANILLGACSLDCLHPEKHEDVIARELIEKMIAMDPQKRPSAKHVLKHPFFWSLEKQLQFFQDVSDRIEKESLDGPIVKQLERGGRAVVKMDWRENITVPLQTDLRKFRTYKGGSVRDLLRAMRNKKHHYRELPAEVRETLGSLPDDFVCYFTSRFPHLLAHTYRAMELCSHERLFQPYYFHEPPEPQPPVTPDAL
row,Compound,IC50
1,"CCCS(=O)(=O)Nc1cc(F)c(Oc2ncccc2-c2ccnc(N[C@H]3CC[C@H](N)CC3)n2)c(F)c1 [Compound 122, N-(4-((3-(2-(((1r,4r)-4-aminocyclohexyl)amino)pyrimidin-4-yl)pyridin-2-yl)oxy)-3,5-difluorophenyl)propane-1-sulfonamide hydrochloride]",20 nM
2,"O=S(=O)(Cc1ccccc1F)Nc1c(F)cc(Oc2ncccc2-c2ccnc(N[C@@H]3CNC[C@@H](F)C3)n2)c(F)c1F [Compound 355, 1-(2-Fluorophenyl)-N-[2,3,6-trifluoro-4-[[3-[2-[[(3S,5S)-5-fluoro-3-piperidyl]amino]pyrimidin-4-yl]-2-pyridyl]oxy]phenyl]methanesulfonamide]",0.2 nM
3,"C[C@@]1(F)CNC[C@@H](Nc2nccc(-c3cccnc3Oc3cc(F)c(NS(=O)(=O)Cc4ccccc4)c(F)c3F)n2)C1 [Compound 190, 1-Phenyl-N-(2,3,6-trifluoro-4-((3-(2-(((3S,5S)-5-fluoro-5-methyl-3-piperidyl)amino)pyrimidin-4-yl)-2-pyridyl)oxy)phenyl)methanesulfonamide]",4.7 nM
4,"O=S(=O)(Cc1ccc(F)cc1)Nc1c(F)cc(Oc2ncccc2-c2ccnc(N[C@@H]3CNCC(CF)C3)n2)c(F)c1F (stereo in doubt) [Compound 316, 1-(4-Fluorophenyl)-N-(2,3,6-trifluoro-4-((3-(2-(((3S,5S)-5-(fluoromethyl)piperidin-3-yl)amino)pyrimidin-4-yl)pyridin-2-yl)oxy)phenyl)methanesulfonamide]",0.35 nM
5,"O=S(=O)(Cc1ccccc1F)Nc1c(Cl)cc(Oc2ncccc2-c2ccnc(N[C@@H]3CNC[C@@H](F)C3)n2)c(F)c1F [Compound 323, N-(6-Chloro-2,3-difluoro-4-((3-(2-(((3S,5S)-5-fluoropiperidin-3-yl)amino)pyrimidin-4-yl)pyridin-2-yl)oxy)phenyl)-1-(2-fluorophenyl)methanesulfonamide]",0.33 nM
6,"O=S(=O)(Cc1ccc(F)c(Cl)c1)Nc1c(F)cc(Oc2ncccc2-c2ccnc(N[C@@H]3CNC[C@@H](F)C3)n2)c(F)c1F [Compound 366, 1-(3-Chloro-4-fluoro-phenyl)-N-[2,3,6-trifluoro-4-[[3-[2-[[(3S,5S)-5-fluoro-3-piperidyl]amino]pyrimidin-4-yl]-2-pyridyl]oxy]phenyl]methanesulfonamide]",0.2 nM
7,"COCCN(C)[C@H]1CC[C@H](Nc2nccc(-c3cccnc3Oc3cc(F)c(NS(=O)(=O)Cc4ccc(F)cc4)c(F)c3F)n2)CC1 [Compound 341, 1-(4-Fluorophenyl)-N-(2,3,6-trifluoro-4-((3-(2-(((1r,4r)-4-((2-methoxyethyl)(methyl)amino)cyclohexyl)amino)pyrimidin-4-yl)pyridin-2-yl)oxy)phenyl)methanesulfonamide hydrochloride]",0.5 nM
8,"O=S(=O)(Cc1cccc(Cl)c1)Nc1c(F)cc(Oc2ncccc2-c2ccnc(N[C@@H]3CNC[C@@H](F)C3)n2)c(F)c1F [Compound 353, 1-(3-Chlorophenyl)-N-[2,3,6-trifluoro-4-[[3-[2-[[(3S,5S)-5-fluoro-3-piperidyl]amino]pyrimidin-4-yl]-2-pyridyl]oxy]phenyl]methanesulfonamide]",0.3 nM
9,"Cc1c(NS(=O)(=O)Cc2ccccc2)cccc1Oc1ncccc1-c1ccnc(N[C@H]2CCCNC2)n1 [Compound 140, (S)—N-(2-Methyl-3-((3-(2-(piperidin-3-ylamino)pyrimidin-4-yl)pyridin-2-yl)oxy)phenyl)-1-phenylmethanesulfonamide hydrochloride]",26 nM
10,"O=S(=O)(Cc1cc(F)ccc1F)Nc1c(F)cc(Oc2ncccc2-c2ccnc(N[C@@H]3CNC[C@@H](F)C3)n2)c(F)c1F [Compound 378, 1-(2,5-Difluorophenyl)-N-(2,3,6-trifluoro-4-((3-(2-(((3S,5S)-5-fluoropiperidin-3-yl)amino)pyrimidin-4-yl)pyridin-2-yl)oxy)phenyl)methanesulfonamide]",1.1 nM
11,"CCC(F)(F)CS(=O)(=O)Nc1c(F)cc(Oc2nc(C)ccc2-c2ccnc(N[C@@H]3CNC[C@@H](F)C3)n2)c(F)c1F [Compound 270, 2,2-Difluoro-N-(2,3,6-trifluoro-4-((3-(2-(((3S,5S)-5-fluoropiperidin-3-yl)amino)pyrimidin-4-yl)-6-methylpyridin-2-yl)oxy)phenyl)butane-1-sulfonamide]",0.54 nM
12,"O=S(=O)(Cc1ccccc1F)Nc1c(F)cc(Oc2ncccc2-c2ccnc(NC3CNCC(C4CC4)C3)n2)c(F)c1F (single isomer, unassigned) [Compound 327, N-(4-((3-(2-((5-Cyclopropylpiperidin-3-yl)amino)pyrimidin-4-yl)pyridin-2-yl)oxy)-2,3,6-trifluorophenyl)-1-(2-fluorophenyl)methanesulfonamide]",0.26 nM
13,N#Cc1ccc(CS(=O)(=O)Nc2c(F)cc(Oc3ncccc3-c3ccnc(N[C@@H]4CNC[C@@H](F)C4)n3)c(F)c2F)c(F)c1 [Compound 360],0.8 nM
14,"CN(C)C1CCC(Nc2nccc(-c3cccnc3Oc3cc(F)c(NS(=O)(=O)Cc4ccccc4)c(F)c3F)n2)CC1F (single isomer, unassigned) [Compound 306, N-(4-((3-(2-((4-(Dimethylamino)-3-fluorocyclohexyl)amino)pyrimidin-4-yl)pyridin-2-yl)oxy)-2,3,6-trifluorophenyl)-1-phenylmethanesulfonamide]",43 nM
15,"CC(F)C1CNCC(Nc2nccc(-c3cccnc3Oc3cc(F)c(NS(=O)(=O)Cc4ccccc4)c(F)c3F)n2)C1 (single isomer, unassigned) [Compound 344, 1-Phenyl-N-(2,3,6-trifluoro-4-((3-(2-((5-(1-fluoroethyl)piperidin-3-yl)amino)pyrimidin-4-yl)pyridin-2-yl)oxy)phenyl)methanesulfonamide hydrochloride]",19 nM
16,"O=S(=O)(Cc1ccccc1)Nc1c(F)cc(Oc2ncccc2-c2ccnc(N[C@@H]3CNC[C@@H](F)C3)n2)c(F)c1F [Compound 176, 1-Phenyl-N-(2,3,6-trifluoro-4-((3-(2-(((3S,5S)-5-fluoropiperidin-3-yl)amino)pyrimidin-4-yl)pyridin-2-yl)oxy)phenyl)methanesulfonamide]",2.5 nM
17,"Cc1cccc(CS(=O)(=O)Nc2c(F)cc(Oc3ncccc3-c3ccnc(N[C@@H]4CNC[C@@H](F)C4)n3)c(F)c2F)c1 [Compound 383, 1-m-Tolyl-N-(2,3,6-trifluoro-4-((3-(2-(((3S,5S)-5-fluoropiperidin-3-yl)amino)pyrimidin-4-yl)pyridin-2-yl)oxy)phenyl)methanesulfonamide]",0.7 nM
18,"Cc1cc(NS(=O)(=O)C(C)c2ccccc2)c(F)c(F)c1Oc1ncccc1-c1ccnc(N[C@@H]2CNC[C@@H](F)C2)n1 (single isomer, unassigned) [Compound 313, hydrochloride]",1.2 nM
19,"CN(C)[C@H]1CC[C@H](Nc2nccc(-c3cccnc3Oc3cc(F)c(NS(=O)(=O)CCC(C)(F)F)c(F)c3F)n2)CC1 [Compound 310, N-(4-((3-(2-(((1r,4r)-4-(Dimethylamino)cyclohexyl)amino)pyrimidin-4-yl)pyridin-2-yl)oxy)-2,3,6-trifluorophenyl)-3,3-difluorobutane-1-sulfonamide]",0.32 nM
20,"O=S(=O)(Cc1ccccc1)Nc1ccc(Oc2ncccc2-c2ccnc(NC34CNCC3C4)n2)c(F)c1F (single isomer, unassigned) [Compound 186, N-(4-((3-(2-(3-Azabicyclo[3.1.0]hexan-5-ylamino)pyrimidin-4-yl)-2-pyridyl)oxy)-2,3-difluoro-phenyl)-1-phenyl-methanesulfonamide]",20 nM
21,"O=S(=O)(Cc1ccccc1)Nc1c(F)cc(Oc2ncccc2-c2ccnc(NC3CNCC(CF)C3)n2)c(F)c1F (single isomer, unassigned) [Compound 277, 1-Phenyl-N-(2,3,6-trifluoro-4-((3-(2-((5-(fluoromethyl)piperidin-3-yl)amino)pyrimidin-4-yl)pyridin-2-yl)oxy)phenyl)methanesulfonamide]",27 nM
22,"O=S(=O)(Cc1ccccc1)Nc1cccc(Oc2ncccc2-c2ccnc(N[C@H]3CCCNC3)n2)c1F [Compound 142, (S)—N-(2-Fluoro-3-((3-(2-(piperidin-3-ylamino)pyrimidin-4-yl)pyridin-2-yl)oxy)phenyl)-1-phenylmethanesulfonamide hydrochloride]",16 nM
23,N#Cc1cc(Cl)ccc1CS(=O)(=O)Nc1c(F)cc(Oc2ncccc2-c2ccnc(N[C@@H]3CNC[C@@H](F)C3)n2)c(F)c1F [Compound 362],0.2 nM
24,"Cc1ccc(CS(=O)(=O)Nc2c(C)cc(Oc3ncccc3-c3ccnc(N[C@@H]4CNC[C@@](C)(F)C4)n3)c(F)c2F)cc1 [Compound 305, N-(2,3-Difluoro-4-((3-(2-(((3S,5S)-5-fluoro-5-methylpiperidin-3-yl)amino)pyrimidin-4-yl)pyridin-2-yl)oxy)-6-methylphenyl)-1-(p-tolyl)methanesulfonamide]",0.21 nM
25,"Cc1cc(NS(=O)(=O)C2CCCC2)cc(F)c1Oc1ncccc1-c1ccnc(N[C@H]2CCCNC2)n1 [Compound 116, (S)-N-(3-fluoro-5-methyl-4-((3-(2-(piperidin-3-ylamino)pyrimidin-4-yl)pyridin-2-yl)oxy)phenyl)cyclopentanesulfonamide hydrochloride]",23 nM
